Series [1] deals with telomerase. Nature of the series: Modified telomeric repeat amplification protocol (TRAP) assay, cell-free. It counts as biochemical. Particulars: extracts from A2780 human ovarian carcinoma cells, salts, read-out: telIC50. Here is the method:
The ability of compounds to inhibit telomerase in a cell-free assay was assessed with a modified TRAP assay using extracts from exponentially growing A2780 human ovarian carcinoma cells. The TRAP assay was performed in 2 steps: (a) telomerase-mediated extension of the forward primer (TS: 5′-AATCCGTCGAGCAGAGTT, Oswel Ltd., Southampton, UK) contained in a 40 μL reaction mix comprising TRAP buffer (20 mM Tris-HCl (pH 8.3), 68 mM KCl, 1.5 mM MgCl2, 1 mM EGTA, 0.05% v/v Tween 20), 0.05 μg bovine serum albumin, 50 μM of each deoxynucleotide triphosphate, 0.1 μg TS primer, and […] of [α-^32P]dCTP (Amersham pic, UK). Protein (40 ng or 20 ng) was then incubated with the reaction mix+agent (acid addition and quaternary dimethiodide salts) at final concentrations of up to 50 μM for 20 min at 25° C. A lysis buffer (no protein) control, heat-inactivated protein control, and 50% protein (20 ng or 10 ng) control were included in each assay; and (b) while heating at 80° C. in a PCR block of a thermal cycler (Hybaid, UK) for 5 min to inactivate telomerase activity, 0.1 μg of reverse CX primer (3′-[…]-5′) and 2 Units of Taq DNA polymerase (“red hot”, Advanced Biotechnologies) were added. A 3-step PCR was then performed: 94° C. for 30 s, 50° C. for 30 s, and 72° C. for 1 min for 31 cycles. Telomerase-extended PCR products in the presence or absence of compounds were then determined either by electrophoretic separation using 8% w/w acrylamide denaturing gels and analysis by phosphorimaging or autoradiography, or by harvesting on Whatman filters (25 mm glass microfibre) and analysis by liquid scintillation counting.

Series [2] can be described thus: Growth inhibition, sulforhodamine B (SRB) assay. It counts as cell-based. Particulars: human, salts. As to the method: (§1) Growth inhibition was measured in three human ovarian carcinoma cell lines (A2780, CH1, and SKOV-3) and one human cervix carcinoma cell line (A431) using the sulforhodamine B (SRB) assay. Briefly, between 3000 and 6000 cells were seeded into the wells of 96-well microtiter plates and allowed to attach overnight. Compounds (acid addition and quaternary dimethiodide salts) were dissolved at 500 μM in water and immediately added to wells in quadruplicate at final concentrations of 0.05, 0.25, 1, 5 and 25 μM. Following an incubation period of 96 hr, remaining cells were fixed with ice-cold 10% w/v trichloroacetic acid (30 min) and stained with 0.4% SRB in 1% v/v acetic acid (15 min). Mean absorbance at 540 nm for each drug concentration was expressed as a percentage of the control untreated well absorbance, and IC50 values (concentration required to inhibit cell growth by 50%) were determined for each agent.

The nature of series [3]: Growth inhibition, SRB assay, mean over the four cell lines. Particulars: human, mean of A2780, CH1, SKOV-3, A431, 96 hr incubation, salts, read-out: Cytotoxicity - IC50, mean value for the four (4) cell lines. It counts as cell-based. Here is the method: as §1
[4] abbreviates: A431 cervix carcinoma cells, A431, 96 hr incubation, read-out: Cytotoxicity - IC50 A431.
Setting [5] is: A2780 ovarian carcinoma cells, A2780, 96 hr incubation, read-out: Cytotoxicity - IC50 A2780.
[6] abbreviates: CH1 ovarian carcinoma cells, CH1, 96 hr incubation, read-out: Cytotoxicity - IC50 CH1.
[7] abbreviates: SKOV-3 ovarian carcinoma cells, SKOV-3, 96 hr incubation, read-out: Cytotoxicity - IC50 SKOV-3.

Each structure is given as a SMILES string.

As to `CN(C)CCCNc1ccc2cc3ccc(NCCCN(C)C)cc3nc2c1` [SB-ACI-04, 3,6-Bis[(N,N-dimethylaminopropyl)amino]acridine], the IC50 in series [1] turned out to be 200 nM. The IC50 at 96 h in series [2] (setting [4]) stood at 700 nM; in series [2] (setting [5]), 1800 nM; in series [2] (setting [6]), 2000 nM; in series [2] (setting [7]), 3900 nM.
As for `CCN(CC)CCNc1ccc2cc3ccc(NCCN(CC)CC)cc3nc2c1` [SB-ACI-05, 3,6-Bis[(N,N-diethylaminoethyl)amino]acridine], the IC50 in series [1] stood at 540 nM. Moreover, the IC50 at 96 h worked out at 200 nM in series [2] (setting [4]), 100 nM in series [2] (setting [5]), 200 nM in series [2] (setting [6]) and 700 nM in series [2] (setting [7]).
Consider `CC(C)N(CCNc1ccc2cc3ccc(NCCN(C(C)C)C(C)C)cc3nc2c1)C(C)C` [SB-ACI-06, 3,6-Bis[(N,N-diisoproyplaminoethyl)amino]acridine], for which the IC50 in series [1] is 590 nM. For the same compound, the IC50 at 96 h in series [2] (setting [4]) was found to be 1000 nM; in series [2] (setting [5]) it was 400 nM; in series [2] (setting [6]), 600 nM; in series [2] (setting [7]), 1300 nM.
On the same counts, the results for `CN(C)CCNc1ccc2cc3ccc(NCCN(C)C)cc3nc2c1` [SB-ACI-10, 3,6-Bis[(N,N-dimethylaminoethyl)amino]acridine] are 480 nM, 200 nM, 200 nM, 100 nM and 200 nM.
For `c1cc2cc3ccc(NCCCN4CCCC4)cc3nc2cc1NCCCN1CCCC1` [SB-ACI-23, 3,6-Bis[(3-pyrolidino)propylamino]acridine], the IC50 in series [1] amounted to 181 nM. In addition, the IC50 at 96 h in series [3] worked out at 1600 nM.
The matching figures for `CCN(CC)CCCNc1ccc2cc3ccc(NCCCN(CC)CC)cc3nc2c1` [SB-ACI-24, 3,6-Bis[(3-diethylamino)propylamino]acridine]: 222 nM and 1800 nM.
The matching figures for `c1cc2cc3ccc(NCCCN4CCCCC4)cc3nc2cc1NCCCN1CCCCC1` [SB-ACI-25, 3,6-Bis[(3-piperidino)propylamino]acridine]: 218 nM and 500 nM.
The matching figures for `c1cc2cc3ccc(NCCCCN4CCCC4)cc3nc2cc1NCCCCN1CCCC1` [SB-ACI-26, 3,6-Bis[(4-pyrolidino)butylamino]acridine]: 153 nM and 2500 nM.
`c1ccc(NCCCNc2ccc3cc4ccc(NCCCNc5ccccc5)cc4nc3c2)cc1` [SB-ACI-27, 3,6-Bis[(3-phenylamino)propylamino]acridine]: the IC50 in series [1] was 16800 nM. In addition, the IC50 at 96 h in series [3] stood at 1700 nM.
On the same counts, the results for `CCN(CC)CCCCNc1ccc2cc3ccc(NCCCCN(CC)CC)cc3nc2c1` [SB-ACI-28, 3,6-Bis[(4-diethylamino)butylamino]-acridine] are 205 nM and 6300 nM.
